Assay results taken from article PMC4939875 (Nature, 2016).

Experiments:
[1] = test system: TONSL ARD; test: GST-histone tail pull-down with recombinant TONSL ARD; format: binding, human; conditions: GST-H3 tail (1–59), GST-H4 tail (1–31); 20 mM Tris pH 7.5, 0.5 M NaCl; SDS-PAGE
[2] = test system: TONSL acidic stretch and ARD (a.a. 450-692); test: ITC of TONSL acidic stretch and ARD; format: binding, human; conditions: TONSL a.a. 450-692, H3K9me1 (a.a. 1-21), 20 mM Tris pH 7.5, 0.5 M NaCl

| binding of TONSL ARD to GST-histone tail [1] | Substance | interaction between TONSL ARD with acidic stretch and H3K9me1 peptide [2] |
| --- | --- | --- |
| binds | GST-H4 tail: GST-tagged human histone H4 fragment 1–31 | – |
| – | H3K9me1: peptide of H3(1-21)K9me1 (mono-methylation on Lys9) | unable to detect an interaction |
